The source of these data is ChEMBL document CHEMBL1127288, “Derivatives of D-penicillamine as potential antiarthritic agents” (1994).

Common to all, as to assay type: functional
The subject of assay [1] is Rattus norvegicus. Nature of the assay: Erosions of tarsal bones measured radiographically after 42 days initial immunization with type II collagen in rats at a dose of 200 mg/kg.
The subject of assay [2] is Rattus norvegicus. Nature of the assay: Paw diameter measured with a micrometer caliper after 42 days initial immunization with type II collagen in rats at a dose of 200 mg/kg.
Assay [3] deals with Rattus norvegicus. Nature of the assay: Cartilage space narrowing was measured radiographically after 42 days initial immunization with type II collagen in rats at a dose of 200 mg/kg.

Molecule `C[C@]12C=CC(=O)C=C1CCC1[C@@H]2[C@@H](O)C[C@@]2(C)[C@H]1CC[C@]2(O)C(=O)CO` (single isomer, unassigned) [PREDNISOLONE] yielded an Erosions in assay [1] of 3.5. In assay [2], the Mean paw diameter amounted to 7.92 mm. The Cartilage space in assay [3] is recorded as 3.27.
For `COc1ccc2c(c1)c(CC(=O)O)c(C)n2C(=O)c1ccc(Cl)cc1` [INDOMETHACIN], in that order: 2.94, 8 mm and 2.94.
For `CC(C)(S)[C@@H](N)C(=O)O` [PENICILLAMINE], in that order: 2.83, 8.89 mm and 2.72.
Taken in the same sequence, the figures for `CCCCC1C(=O)N(c2ccccc2)N(c2ccccc2)C1=O` [PHENYLBUTAZONE] were 3.33, 8.42 mm and 2.86.
